Test results taken from patent publication US12692238B2, “Substituted pyridazinone herbicides” (FMC CORPORATION, priority 2020, dated 2026).

Columns and labels:
Assay type in all cases: in vivo
kochia (Bassia scoparia) = test: Test A preemergence, kochia; conditions: Bassia scoparia, pre-emergence, 240 h, 0 to 100 scale, 10 days, read-out: Plant response rating, Kochia; for pest or weed control at 31 g/ha: 31 g ai/ha; for pest or weed control at 125 g/ha: 125 g ai/ha
Procedure, shortened: (§1)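 Seeds sown in loam–sand blend received a directed soil spray preemergence; postemergence plants at 2 to 10 cm, one- to two-leaf stage, were sprayed. Compounds were formulated in non-phytotoxic solvent with surfactant. After 10 days in greenhouse, injury was rated visually versus untreated controls, 0 (no effect) to 100 (complete control).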

[1] = test system: foxtail, green (green foxtail, Setaria viridis); test: Test A postemergence, foxtail, green; conditions: 10 days
Description: (§2) Seeds of plant species selected from barnyardgrass (Echinochloa crus-galli), blackgrass (Alopecurus myosuroides), corn (Zea mays), foxtail, giant (giant foxtail, Setaria faberi), foxtail, green (green foxtail, Setaria viridis), goosegrass (Eleusine indica), kochia (Bassia scoparia), oat, wild (wild oat, Avena fatua), palmer amaranth (pigweed, palmer, Amaranthus palmeri), redroot pigweed (Amaranthus retroflexus), ragweed (common ragweed, Ambrosia artemisiifolia), ryegrass, Italian (Italian ryegrass, Lolium multiflorum), and soybean (Glycine max) were planted into a blend of loam soil and sand and treated preemergence with a directed soil spray using test chemicals formulated in a non-phytotoxic solvent mixture which included a surfactant.
(§3) At the same time, plants selected from these crop and weed species and also wheat (Triticum aestivum), galium (catchweed bedstraw, Galium aparine) and horseweed (Erigeron canadensis) were planted in pots containing the same blend of loam soil and sand and treated with postemergence applications of test chemicals formulated in the same manner. Plants ranged in height from 2 to 10 cm and were in the one- to two-leaf stage for the postemergence treatment. Treated plants and untreated controls were maintained in a greenhouse for 10 days, after which time all treated plants were compared to untreated controls and visually evaluated for injury. Plant response ratings, summarized in Table A, are based on a 0 to 100 scale where 0 is no effect and 100 is complete control. A dash (-) response means no test result.

[2] = test system: ducksalad (Heteranthera limosa); test: Test B flooded paddy test, ducksalad; conditions: Heteranthera limosa; 250 g ai/ha, Flood; visually evaluated after 10 to 14 days; read-out: Plant response rating, Ducksalad (0 to 100 scale where 0 is no effect and 100 is complete control)
Procedure, shortened: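 Compound added straight to paddy water of pots flooded to 3 cm, with 2-leaf-stage plants; water level held for the test. Injury scored visually against untreated controls after 10 to 14 greenhouse days, 0 (none) to 100 (complete control).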

[3] = test system: redroot pigweed (Amaranthus retroflexus); test: Test A postemergence, redroot pigweed; conditions: 10 days
Procedure, shortened: as §1

[4] = test system: redroot pigweed (Amaranthus retroflexus); test: Test A preemergence, redroot pigweed; conditions: 0 to 100 scale, 10 days
Procedure, shortened: as §1

[5] = test system: foxtail, green (green foxtail, Setaria viridis); test: Test A preemergence, foxtail, green; conditions: 0 to 100 scale, 10 days
Description: as §2, §3

[6] = test system: wheat (Triticum aestivum); test: Test A preemergence, wheat; conditions: 125 g ai/ha, 0 to 100 scale, 10 days
[7] = test system: oat, wild (wild oat, Avena fatua); test: Test A postemergence, oat, wild; conditions: 10 days
Procedure, shortened: as §1

[8] = test system: horseweed (Erigeron canadensis); test: Test A postemergence, horseweed; conditions: 10 days
Procedure, shortened: as §1

corn (Zea mays) = test: Test A preemergence, corn; conditions: 0 to 100 scale, 10 days
Procedure, shortened: as §1

soybean (Glycine max) [9] = test: Test A postemergence, soybean; conditions: 10 days
Procedure, shortened: as §1

soybean (Glycine max) [10] = test: Test A preemergence, soybean; conditions: 0 to 100 scale, 10 days
Procedure, shortened: as §1

[11] = test system: blackgrass (Alopecurus myosuroides); test: Test A preemergence, blackgrass; conditions: 0 to 100 scale, 10 days
Procedure, shortened: as §1

[12] = test system: palmer amaranth (pigweed, palmer, Amaranthus palmeri); test: Test A preemergence, palmer amaranth; conditions: 0 to 100 scale, 10 days
Procedure, shortened: as §1

[13] = test system: goosegrass (Eleusine indica); test: Test A preemergence, goosegrass; conditions: 0 to 100 scale, 10 days
Procedure, shortened: as §1

[14] = test system: oat, wild (wild oat, Avena fatua); test: Test A preemergence, oat, wild; conditions: 0 to 100 scale, 10 days
Procedure, shortened: as §1

[15] = test system: goosegrass (Eleusine indica); test: Test A postemergence, goosegrass; conditions: 10 days
Procedure, shortened: as §1

[16] = test system: palmer amaranth (pigweed, palmer, Amaranthus palmeri); test: Test A postemergence, palmer amaranth; conditions: 10 days
Procedure, shortened: as §1

[17] = 31 g ai/ha, postemergence, 0 to 100 scale (0 no effect, 100 complete control)
[18] = Postemergence, 125 g ai/ha, 0 to 100 scale

| Compound | pest or weed control at 31 g/ha (kochia (Bassia scoparia)) [%] | pest or weed control at 125 g/ha (kochia (Bassia scoparia)) [%] | Plant response rating, Foxtail, Green [1, 17] | Plant response rating, Foxtail, Green [1, 18] | pest or weed control at 250 g/ha [2] [%] | Plant response rating, Pigweed, Redroot [3, 17] | Plant response rating, Pigweed, Redroot [3, 18] | Plant response rating, Pigweed, Redroot ([4]; 31 g ai/ha) | Plant response rating, Pigweed, Redroot ([4]; 125 g ai/ha) | Plant response rating, Foxtail, Green ([5]; 31 g ai/ha) | Plant response rating, Foxtail, Green ([5]; 125 g ai/ha) | Plant response rating, Wheat [6] | Plant response rating, Oat, Wild [7, 17] | Plant response rating, Oat, Wild [7, 18] | Plant response rating, Horseweed [8, 17] | Plant response rating, Horseweed [8, 18] | Plant response rating, Corn (corn (Zea mays); 31 g ai/ha) | Plant response rating, Corn (corn (Zea mays); 125 g ai/ha) | Plant response rating, Soybean (soybean (Glycine max) [9]; [17]) | Plant response rating, Soybean (soybean (Glycine max) [9]; [18]) | further results |
| --- | --- | --- | --- | --- | --- | --- | --- | --- | --- | --- | --- | --- | --- | --- | --- | --- | --- | --- | --- | --- | --- |
| CC(=O)OCOc1c(Cl)nn(C)c(=O)c1-c1c(C)ccc2ccccc12 [Compound 5, 5-[(acetyloxy)methoxy]-6-chloro-2-methyl-4-(2-methyl-1-naphthalenyl)-3(2H)-pyridazinone] | 40 | 70 | 40 | 80 | 80 | 90 | 100 | 100 | 100 | 50 | 90 | – | – | – | – | – | – | – | – | – | – |
| COC(=O)OCOc1c(C)nn(C)c(=O)c1-c1c2cc(C)ccc2cc2ccc(F)cc12 [Compound 15, [[5-(2-fluoro-7-methyl-9-anthracenyl)-1,6-dihydro-1,3-dimethyl-6-oxo-4-pyridazinyl]oxy]methyl methyl carbonate] | 90 | 100 | – | – | 95 | – | – | – | – | – | – | 0 | 20 | 40 | 100 | 100 | 0 | 30 | 80 | 90 | Plant response rating, Soybean (soybean (Glycine max) [10]; 31 g ai/ha): 0; Plant response rating, Soybean (soybean (Glycine max) [10]; 125 g ai/ha): 10; Plant response rating, Blackgrass ([11]; 31 g ai/ha): 30; Plant response rating, Blackgrass ([11]; 125 g ai/ha): 10; Plant response rating, Pigweed, Palmer ([12]; 31 g ai/ha): 100; Plant response rating, Pigweed, Palmer ([12]; 125 g ai/ha): 100; Plant response rating, Goosegrass ([13]; 31 g ai/ha): 50; Plant response rating, Goosegrass ([13]; 125 g ai/ha): 90; Plant response rating, Oat, Wild ([14]; 31 g ai/ha): 20; Plant response rating, Oat, Wild ([14]; 125 g ai/ha): 20; Plant response rating, Goosegrass [15, 17]: 30; Plant response rating, Goosegrass [15, 18]: 60; Plant response rating, Pigweed, Palmer [16, 17]: 100; Plant response rating, Pigweed, Palmer [16, 18]: 100 |
| CC(=O)OCOc1c(Cl)nn(C)c(=O)c1-c1c(C)sc2cccc(Cl)c12 [Compound 1, 5-[(acetyloxy)methoxy]-6-chloro-4-(4-chloro-2-methylbenzo[b]thien-3-yl)-2-methyl-3(2H)-pyridazinone] | 0 | 10 | 0 | 10 | 0 | 80 | 90 | 80 | 90 | 0 | 10 | – | – | – | – | – | – | – | – | – | – |
| COC(=O)OCOc1c(Cl)nn(C)c(=O)c1-c1c2cc(C)ccc2cc2ccc(C)cc12 [Compound 8, [[3-chloro-5-(2,7-dimethyl-9-anthracenyl)-1,6-dihydro-1-methyl-6-oxo-4-pyridazinyl]oxy]methyl methyl carbonate] | 60 | 100 | – | – | 95 | – | – | – | – | – | – | 0 | 0 | 10 | 100 | 100 | 0 | 60 | 40 | 60 | Plant response rating, Soybean (soybean (Glycine max) [10]; 31 g ai/ha): 0; Plant response rating, Soybean (soybean (Glycine max) [10]; 125 g ai/ha): 0; Plant response rating, Blackgrass ([11]; 31 g ai/ha): 0; Plant response rating, Blackgrass ([11]; 125 g ai/ha): 0; Plant response rating, Pigweed, Palmer ([12]; 31 g ai/ha): 100; Plant response rating, Pigweed, Palmer ([12]; 125 g ai/ha): 100; Plant response rating, Goosegrass ([13]; 31 g ai/ha): 0; Plant response rating, Goosegrass ([13]; 125 g ai/ha): 0; Plant response rating, Oat, Wild ([14]; 31 g ai/ha): 0; Plant response rating, Oat, Wild ([14]; 125 g ai/ha): 0; Plant response rating, Goosegrass [15, 17]: 0; Plant response rating, Goosegrass [15, 18]: 0; Plant response rating, Pigweed, Palmer [16, 17]: 70; Plant response rating, Pigweed, Palmer [16, 18]: 100 |
